According to patent US8420122B2, “Process for the precipitation and isolation of 6,6-dimethyl-3-aza-bicyclo [3.1.0] hexane-amide compounds by controlled precipitation and pharmaceutical formulations containing same” (Merck Sharp & Dohme Corp., priority 2006, dated 2013):
Where two headings read alike, the source gives them in different places.

Experiments:
[1] = BET surface area (bulk surface area); format: physicochemical; settings: for bulk surface area after distillation step: final granulate product
[2] = Aggregated / median particle size and size distribution; format: physicochemical; settings: for Aggregated particle size: additional runs A, B, C (mixing Tee)
Experimental: As used herein “median precipitated particle size” “median aggregate particle size” and “particulate size distribution” are determined by Laser Diffraction […] measurements.

[3] = Bulk density / tapped density; format: physicochemical
Experimental: The particulate prepared above was recovered by pressure filtration and vacuum dried under house vacuum (approximately 60 to 70 torr) for 2 hours at 25 C followed by 8 hours of house vacuum at 35 C. The product was finish-dried at 45 C under house vacuum for an additional 16 hours. The dried particulate was evaluated and found to have a primary particle size ranging from less than 1 micron up to about 2 microns. The specific surface area (BET absorption method) was determined to be about 19.11 m2/g. The bulk density of isolated material was determined by weighing a 25 ml (unpacked) sample.

[4] = Softening point of precipitate (FBRM during controlled heating); format: physicochemical
Experimental: (§1) For the Examples which follow, particle size information was acquired by measuring the particulate material produced in the slurry using Focused Beam Reflectance Measurements (FBRM) performed with a Lasentec probe from Mettler Toledo in accordance with manufacturers directions for obtaining such measurements. Measurements were carried out on a sample of the slurry as obtained from the holding tank prior to vacuum distillation. The procedure and equipment can measure particulate materials over a size range of from 1 micron up to 1000 microns. Primary particle size was characterized qualitatively by Scanning Electron Microscopy (SEM). Changes in particle aggregation and aggregate morphology were observed by SEM under various conditions to determine softening point of the precipitated material. For SEM determination of softening point, a sample of the slurry was obtained periodically at each temperature interval as the slurry was heated. The solids in the sample were collected by filtration, dried under vacuum for 1 to 2 hours and the dried sample was examined using conventional SEM. […] The softening point was inferred from the sampling temperature at which the precipitate began to show loss of nodular particle appearance when examined by SEM in this manner.
Verified by SEM observations, it was shown also that softening point could be determined from FBRM measurements (taken in accordance with manufactures instructions) made on a sample of the slurry undergoing controlled heating. […] FBRM measurements were obtained continuously during the heating cycle and the softening point was determined to be the temperature corresponding to the maxima in the particle count curve over the heating regime.
A precipitate slurry of the compound of Formula B was prepared by setting the flow control valves to supply 3400 ml/min. of n-heptane and 840 ml/min of the MTBE/compound of Formula B solution. […] An aliquot of the slurry thus produced was also evaluated to determine the softening point of the precipitate therein. […] In this manner the softening temperature was determined to be at 36.2 C.

[5] = Primary particle size and morphology by Scanning Electron Microscopy (SEM); format: physicochemical
Experimental: As used herein “primary particle” is the initially formed particles nucleated by combining a solution and anti-solvent. “Primary particle size” refers to the size of a primary particle and is determined by Scanning Electron Microscopy (SEM).
For the Examples which follow, particle size information was acquired by measuring the particulate material produced in the slurry using Focused Beam Reflectance Measurements (FBRM) performed with a Lasentec probe from Mettler Toledo in accordance with manufacturers directions for obtaining such measurements. Measurements were carried out on a sample of the slurry as obtained from the holding tank prior to vacuum distillation. The procedure and equipment can measure particulate materials over a size range of from 1 micron up to 1000 microns. Primary particle size was characterized qualitatively by Scanning Electron Microscopy (SEM). Changes in particle aggregation and aggregate morphology were observed by SEM under various conditions to determine softening point of the precipitated material. For SEM determination of softening point, a sample of the slurry was obtained periodically at each temperature interval as the slurry was heated. The solids in the sample were collected by filtration, dried under vacuum for 1 to 2 hours and the dried sample was examined using conventional SEM. […]

[6] = Chord length by Focused Beam Reflectance Measurements (FBRM); format: physicochemical; settings: Example I first run, slurry, 0.41 M MTBE solution, 20° C.
Experimental: as §1

[7] = Comparative PK Results-2: Day 5 multiple-dose pharmacokinetics; format: in vivo, human; settings: for Tmax: read-out: Tmax, median; for half-life: read-out: t1/2, mean (converted)
Experimental: Pharmacokinetic samples for the determination of plasma concentrations of the compound of Formula B were collected on Day 5 of each period. PK samples were collected predose (0 hour), 1, 2, 3, 4, 6, 8, 12, and 24-hours postdose.

QT/QTc intervals = experiment: QT/QTc study, mean QTcF change from time-matched baseline; settings: for QT interval (mean QTcF change from time-matched baseline): Day 5, relative to placebo
Experimental: A study was conducted to evaluate the effect of both a therapeutic (800 mg TID) and a supratherapeutic (1200 mg TID) dose of the compound of Formula B at steay-state on QT/QTc intervals, as measured by mean maximum change from time-matched baseline ECG recordings compared to placebo.
Thirty-six subjects who met entry criteria received one of four study treatments for Days 1 to 5 of each treatment period. This study was conducted in a 4-way crossover manner so that subjects were randomized to receive the 4 study treatments in one of four sequences. Prior to treatment crossover, subjects completed an approximately 1-week outpatient washout period.

[8] = Comparative Example I, stirred batch reactor
[9] = Example I first run, dried particulate
[10] = Example I second run, isolated material
[11] = 800 mg TID, Day 5, healthy subjects, n = 31
[12] = human, plasma, oral, 800 mg TID, Day 5, healthy subjects, n = 31
[13] = human, plasma, oral, 1200 mg TID, Day 5, healthy subjects, n = 35
[14] = additional runs A, B, C, precipitate before distillation

With `CC(C)(C)NC(=O)NC(C(=O)N1CC2C([C@H]1C(=O)NC(CC1CCC1)C(=O)C(N)=O)C2(C)C)C(C)(C)C` (stereo partly shown) [compound of Formula B, 3-[2-(3-tert-Butyl-ureido)-3,3-dimethyl-butyryl]-6,6-dimethyl-3-aza-bicyclo[3.1.0]hexane-2-carboxylic acid (2-carbamoyl-1-cyclobutylmethyl-2-oxo-ethyl)-amide] the BET Surface area [1, 8] was 1.76 m^2/g, the “specific surface area (BET absorption method)” value [1, 9] was “about 19.11 m2/g” and the “average bulk surface area (BET)” value [1, 10] was “about 10.3 m^2/g”. For the same compound, the bulk surface area ([1]; Example II precipitate) was 8.14 m^2/g, the bulk surface area ([1]; Example III precipitate) was 7.2 m^2/g and the “agglomerated average particle size” value [2, 10] was 11 microns. The median particulate size ([2]; Example II precipitate) was 1.57 microns, the median particulate size ([2]; Example III precipitate) was 1.46 microns and the bulk density [3, 8] was 0.16 g/mL. It also gave a bulk density ([3]; Example I first run, isolated material) of 0.3 g/mL, a bulk density average ([3]; Example I second run, isolated particulate) of 0.191 g/cm³ and a bulk density ([3]; Example II precipitate) of 0.23 g/mL. For the same compound, the bulk density ([3]; Example III precipitate) was 0.18 g/mL, the “softening point of the wet cake” value [4, 8] was “below 30 °C” and the softening temperature ([4]; Example I first run, slurry aliquot heated 1 C/min) was 36.2 C. For the same compound, the softening point ([4]; Example I second run, slurry distilled to about 35% of original volume) was 51.6 °C, the primary particle size [5, 9] was “less than 1 micron up to about 2 microns” and the primary particle size ([5]; Example I second run, after distillation, isolated material) was “less than 1 micron”. For the same compound, the “average chord length of agglomerated particulate” value [6] was 15.8 microns, the “CL/F, mean” value [7, 11] was 158 L/h and the “Cmin, mean” value [7, 11] was 61.9 ng/mL. The “CL/F, mean” value ([7]; 1200 mg TID, Day 5, healthy subjects, n = 35) was 196 L/h, the AUC ([7]; human, plasma, oral, 800 mg, 800 mg TID, Day 5, healthy subjects, n = 31, read-out: AUC(τ), mean) was 5320 ng·h/mL and the Cmax ([7]; human, plasma, oral, 800 mg, 800 mg TID, Day 5, healthy subjects, n = 31, sum of diastereomers, read-out: Cmax, mean) was 1690 ng/mL. For the same compound, the AUC ([7]; human, plasma, oral, 800 mg, 800 mg TID, Day 5, read-out: Individual AUC(τ) values, range) was 3250 to 8900 ng·h/mL, the Cmax ([7]; human, plasma, oral, 800 mg, 800 mg TID, Day 5, read-out: Individual Cmax values, range) was 1150 to 2500 ng/mL and the AUC ([7]; human, plasma, oral, 1200 mg, 1200 mg TID, Day 5, healthy subjects, n = 35, read-out: AUC(τ), mean) was 6500 ng·h/mL. The Cmax ([7]; human, plasma, oral, 1200 mg, 1200 mg TID, Day 5, healthy subjects, n = 35, sum of diastereomers, read-out: Cmax, mean) was 1940 ng/mL, the AUC ([7]; human, plasma, oral, 1200 mg, 1200 mg TID, Day 5, read-out: Individual AUC(τ) values, range) was 2500 to 9400 ng·h/mL and the Cmax ([7]; human, plasma, oral, 1200 mg, 1200 mg TID, Day 5, read-out: Individual Cmax values, range) was 1100 to 3150 ng/mL. For the same compound, the Vd/F [7, 12] was 530 L, the Tmax [7, 12] was 2 h and the half-life [7, 12] was 2.31 h. It also gave a Vd/F [7, 13] of 879 L, a concentration at 5 day ([7]; human, plasma, oral, 1200 mg TID, Day 5, healthy subjects, n = 35, read-out: Cmin, mean) of 79.9 ng/mL and a Tmax [7, 13] of 2 h. For the same compound, the half-life [7, 13] was 3.01 h, the “QT interval (mean QTcF change from time-matched baseline)” value (QT/QTc intervals; 800 mg therapeutic dose (LD) TID) was “does not prolong the QT interval” and the “QT interval (mean QTcF change from time-matched baseline)” value (QT/QTc intervals; 1200 mg supratherapeutic dose (HD) TID) was “does not prolong the QT interval”.

For `CC(C)(C)NC(=O)NC(C(=O)N1CC2C([C@H]1C(=O)NC(CC1CCC1)C(=O)C(N)=O)C2(C)C)C(C)(C)C` (stereo partly shown) [Example B2], the “BET Surface area” value [1, 14] was 25.68 m^2/g and the Aggregated particle size [2] was 10-20 microns.

For `CC(C)(C)NC(=O)NC(C(=O)N1CC2C([C@H]1C(=O)NC(CC1CCC1)C(=O)C(N)=O)C2(C)C)C(C)(C)C` (stereo partly shown) [Example A3], the “BET Surface area” value [1, 14] was 17.41 m^2/g and the Aggregated particle size [2] was 20-30 microns.

In the case of `CC(C)(C)NC(=O)NC(C(=O)N1CC2C([C@H]1C(=O)NC(CC1CCC1)C(=O)C(N)=O)C2(C)C)C(C)(C)C` (stereo partly shown) [Example C3], the Aggregated particle size [2] is reported as 10-20 microns.

For `COc1c(N2C[C@@H]3CCCN[C@@H]3C2)c(F)cc2c(=O)c(C(=O)O)cn(C3CC3)c12` [moxifloxacin, reference compound], the “QT/QTc interval (mean QTcF change from time-matched baseline)” value (QT/QTc intervals; 400 mg QD, positive control) was “lengthened QT/QTc interval”.

In the case of `CC(C)(C)NC(=O)NC(C(=O)N1CC2C([C@H]1C(=O)NC(CC1CCC1)C(=O)C(N)=O)C2(C)C)C(C)(C)C` (stereo partly shown) [Example B3], the “BET Surface area” value [1, 14] is reported as 32.00 m^2/g and the Aggregated particle size [2] is reported as 10-20 microns.

With `CC(C)(C)NC(=O)NC(C(=O)N1CC2C([C@H]1C(=O)NC(CC1CCC1)C(=O)C(N)=O)C2(C)C)C(C)(C)C` (stereo partly shown) [Example C2] the “BET Surface area” value [1, 14] was 32.41 m^2/g, the “bulk surface area after distillation step” value [1] was 6.31 m^2/g and the Aggregated particle size [2] was 0.25-18 microns.

With `CC(C)(C)NC(=O)NC(C(=O)N1CC2C([C@H]1C(=O)NC(CC1CCC1)C(=O)C(N)=O)C2(C)C)C(C)(C)C` (stereo partly shown) [Example B1] the “BET Surface area” value [1, 14] was 32.75 m^2/g and the Aggregated particle size [2] was 10-20 microns.

With `CC(C)(C)NC(=O)NC(C(=O)N1CC2C([C@H]1C(=O)NC(CC1CCC1)C(=O)C(N)=O)C2(C)C)C(C)(C)C` (stereo partly shown) [Example A1] the “BET Surface area” value [1, 14] was 30.19 m^2/g and the Aggregated particle size [2] was 10-20 microns.

For `CC(C)(C)NC(=O)NC(C(=O)N1CC2C([C@H]1C(=O)NC(CC1CCC1)C(=O)C(N)=O)C2(C)C)C(C)(C)C` (stereo partly shown) [Example B4], the “BET Surface area” value [1, 14] was 24.24 m^2/g.

In the case of `CC(C)(C)NC(=O)NC(C(=O)N1CC2C([C@H]1C(=O)NC(CC1CCC1)C(=O)C(N)=O)C2(C)C)C(C)(C)C` (stereo partly shown) [Example C4], the Aggregated particle size [2] is reported as 10-20 microns.

In the case of `CC(C)(C)NC(=O)NC(C(=O)N1CC2C([C@H]1C(=O)NC(CC1CCC1)C(=O)C(N)=O)C2(C)C)C(C)(C)C` (stereo partly shown) [Example C1], the “BET Surface area” value [1, 14] is reported as 24.85 m^2/g, the “bulk surface area after distillation step” value [1] is reported as 6.13 m^2/g and the Aggregated particle size [2] is reported as 0.25-25.5 microns.

In the case of `CC(C)(C)NC(=O)NC(C(=O)N1CC2C([C@H]1C(=O)NC(CC1CCC1)C(=O)C(N)=O)C2(C)C)C(C)(C)C` (stereo partly shown) [Example A2], the “BET Surface area” value [1, 14] is reported as 16.44 m^2/g and the Aggregated particle size [2] is reported as 10-20 microns.
